Assay results reported in ChEMBL document CHEMBL3045957, “Synthesis and antimicrobial activity of some new 3[5-(4-substituted) phenyl-1,3,4-oxadiazole-2yl]-2- styrylquinazoline-4(3H)-ones” (2008).
Converted amounts (≈) assume the structure as drawn. The source made the active and inactive calls. The calls are words filed in the database; no cut-off is given here.

Experiments:
Type in all cases: functional
[1] = system: Bacillus subtilis; experiment: Antibacterial activity against Bacillus subtilis MTCC 619 by liquid dilution technique
[2] = system: Fusarium oxysporum; experiment: Antifungal activity against Fusarium oxysporum by liquid dilution technique
[3] = system: Pseudomonas aeruginosa; experiment: Antibacterial activity against Pseudomonas aeruginosa MTCC 424 by liquid dilution technique
[4] = system: Aspergillus niger; experiment: Antifungal activity against Aspergillus niger MTCC 1344 by liquid dilution technique
[5] = system: Staphylococcus aureus; experiment: Antibacterial activity against Staphylococcus aureus MTCC 96 by liquid dilution technique
[6] = system: Escherichia coli; experiment: Antibacterial activity against Escherichia coli MTCC 40 by liquid dilution technique

Structure (SMILES) | MIC [1] | MIC [2] | MIC [3] | MIC [4] | MIC [5] | MIC [6]
O=c1c2ccccc2nc(/C=C/c2ccc(Cl)cc2)n1-c1nnc(-c2ccc(Cl)cc2)o1 | inactive | inactive | inactive | inactive | inactive | inactive
O=c1c2ccccc2nc(/C=C/c2ccccc2)n1-c1nnc(-c2ccc(Cl)cc2)o1 | 75 µg/mL (≈ 176 µM) | 141 µg/mL (≈ 330 µM) | 86 µg/mL (≈ 201 µM) | 130 µg/mL (≈ 305 µM) | 79 µg/mL (≈ 185 µM) | 70 µg/mL (≈ 164 µM)
COc1ccc(-c2nnc(-n3c(C)nc4ccccc4c3=O)o2)cc1 | 85 µg/mL (≈ 254 µM) | 175 µg/mL (≈ 523 µM) | 100 µg/mL (≈ 299 µM) | 165 µg/mL (≈ 494 µM) | 90 µg/mL (≈ 269 µM) | 80 µg/mL (≈ 239 µM)
Cc1ccc(-c2nnc(-n3c(C)nc4ccccc4c3=O)o2)cc1 | 122 µg/mL (≈ 383 µM) | 180 µg/mL (≈ 565 µM) | 138 µg/mL (≈ 434 µM) | 165 µg/mL (≈ 518 µM) | 127 µg/mL (≈ 399 µM) | 115 µg/mL (≈ 361 µM)
Cc1nc2ccccc2c(=O)n1-c1nnc(-c2ccc(Cl)cc2)o1 | 84 µg/mL (≈ 248 µM) | 184 µg/mL (≈ 543 µM) | 98 µg/mL (≈ 289 µM) | 172 µg/mL (≈ 508 µM) | 89 µg/mL (≈ 263 µM) | 82 µg/mL (≈ 242 µM)
Cc1ccc(/C=C/c2nc3ccccc3c(=O)n2-c2nnc(-c3ccccc3)o2)cc1 | inactive | inactive | inactive | inactive | inactive | inactive
Cc1nc2ccccc2c(=O)n1-c1nnc(-c2ccccc2)o1 | 127 µg/mL (≈ 417 µM) | 192 µg/mL (≈ 631 µM) | 135 µg/mL (≈ 444 µM) | 185 µg/mL (≈ 608 µM) | 130 µg/mL (≈ 427 µM) | 120 µg/mL (≈ 394 µM)
COc1ccc(-c2nnc(-n3c(/C=C/c4ccc(Cl)cc4)nc4ccccc4c3=O)o2)cc1 | inactive | inactive | inactive | inactive | inactive | inactive
COc1ccc(-c2nnc(-n3c(/C=C/c4ccccc4)nc4ccccc4c3=O)o2)cc1 | inactive | inactive | inactive | inactive | inactive | inactive
O=c1c2ccccc2nc(/C=C/c2ccc(Cl)cc2)n1-c1nnc(-c2ccccc2)o1 | inactive | inactive | inactive | inactive | inactive | inactive
O=c1c2ccccc2nc(/C=C/c2ccccc2)n1-c1nnc(-c2ccccc2)o1 | 80 µg/mL (≈ 204 µM) | 152 µg/mL (≈ 387 µM) | 90 µg/mL (≈ 229 µM) | 143 µg/mL (≈ 364 µM) | 82 µg/mL (≈ 209 µM) | 76 µg/mL (≈ 194 µM)
Cc1ccc(/C=C/c2nc3ccccc3c(=O)n2-c2nnc(-c3ccc(C)cc3)o2)cc1 | inactive | inactive | inactive | inactive | inactive | inactive
COc1ccc(-c2nnc(-n3c(/C=C/c4ccc(C)cc4)nc4ccccc4c3=O)o2)cc1 | inactive | inactive | inactive | inactive | inactive | inactive
Cc1ccc(-c2nnc(-n3c(/C=C/c4ccccc4)nc4ccccc4c3=O)o2)cc1 | 83 µg/mL (≈ 204 µM) | 156 µg/mL (≈ 384 µM) | 92 µg/mL (≈ 226 µM) | 145 µg/mL (≈ 357 µM) | 85 µg/mL (≈ 209 µM) | 81 µg/mL (≈ 199 µM)
CN(C)c1ccc(-c2nnc(-n3c(/C=C/c4ccc(Cl)cc4)nc4ccccc4c3=O)o2)cc1 | inactive | inactive | inactive | inactive | inactive | inactive
Cc1ccc(/C=C/c2nc3ccccc3c(=O)n2-c2nnc(-c3ccc(N(C)C)cc3)o2)cc1 | inactive | inactive | inactive | inactive | inactive | inactive
Cc1ccc(/C=C/c2nc3ccccc3c(=O)n2-c2nnc(-c3ccc(Cl)cc3)o2)cc1 | inactive | inactive | inactive | inactive | inactive | inactive
Cc1nc2ccccc2c(=O)n1-c1nnc(-c2ccc(N(C)C)cc2)o1 | 88 µg/mL (≈ 253 µM) | 179 µg/mL (≈ 515 µM) | 95 µg/mL (≈ 273 µM) | 170 µg/mL (≈ 489 µM) | 88 µg/mL (≈ 253 µM) | 84 µg/mL (≈ 242 µM)
CCn1cc(C(=O)O)c(=O)c2cc(F)c(N3CCNCC3)cc21 [NORFLOXACIN] | 5 µg/mL (≈ 15.7 µM) | – | 8 µg/mL (≈ 25.1 µM) | – | 6 µg/mL (≈ 18.8 µM) | 4 µg/mL (≈ 12.5 µM)
CN(C)c1ccc(-c2nnc(-n3c(/C=C/c4ccccc4)nc4ccccc4c3=O)o2)cc1 | 83 µg/mL (≈ 191 µM) | 166 µg/mL (≈ 381 µM) | 94 µg/mL (≈ 216 µM) | 155 µg/mL (≈ 356 µM) | 88 µg/mL (≈ 202 µM) | 79 µg/mL (≈ 181 µM)
Cc1ccc(-c2nnc(-n3c(/C=C/c4ccc(Cl)cc4)nc4ccccc4c3=O)o2)cc1 | inactive | inactive | inactive | inactive | inactive | inactive
Clc1ccccc1C(c1ccccc1)(c1ccccc1)n1ccnc1 [CLOTRIMAZOLE] | – | 8 µg/mL (≈ 23.2 µM) | – | 6 µg/mL (≈ 17.4 µM) | – | –
